Source: patent US20230024302A1, “2,3,5-TRISUBSTITUTED PYRAZOLO[1,5-A]PYRIMIDINE COMPOUNDS” (Arcus Biosciences, Inc., priority 2019, published 2023)
pIC50: −log10 of the molar value.

Tests used:
PI3Kγ (p120γ) = molecular target: T1, PI3Kγ (p120γ) (Homo sapiens, UniProt P48736); assay: Inhibition of PI3K kinase activity (ADP Glo), PI3Kγ; details: Table 1, p120γ, read-out: biochemical potency (PI3Kγ IC50)
T1 construct: purchased Promega V1761
How it was run: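 IC50 values come from a 4-parameter nonlinear fit of ADP-Glo luminescence, which measures ADP produced as PIP2 is phosphorylated to PIP3. The p120γ enzyme (2× stock 8 nM) sat with compound 1 h at rt before substrate (2× stocks: 50 μM ATP, 0.1 mg/ml PIP2) was added. Phosphorylation then proceeded 60 min at rt.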

PI3Kγ = molecular target: T2, PI3Kγ (Homo sapiens, UniProt P48736); assay: PI3Kγ cellular assay in THP-1 cells (AKT pS473 AlphaLISA); format: cell-based; details: Table 1, rhMCP-1 stimulated AKT pS473, read-out: cellular potency (PI3Kγ IC50)
T2 construct: host or cells: THP-1
How it was run: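 Endogenous AKT S473 phosphorylation, detected by AlphaLISA in lysates, serves as the PI3Kγ activity read-out in stimulated, serum-starved THP-1 cells (1.8×10^5/well).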

T1 sequence (P48736 whole entry): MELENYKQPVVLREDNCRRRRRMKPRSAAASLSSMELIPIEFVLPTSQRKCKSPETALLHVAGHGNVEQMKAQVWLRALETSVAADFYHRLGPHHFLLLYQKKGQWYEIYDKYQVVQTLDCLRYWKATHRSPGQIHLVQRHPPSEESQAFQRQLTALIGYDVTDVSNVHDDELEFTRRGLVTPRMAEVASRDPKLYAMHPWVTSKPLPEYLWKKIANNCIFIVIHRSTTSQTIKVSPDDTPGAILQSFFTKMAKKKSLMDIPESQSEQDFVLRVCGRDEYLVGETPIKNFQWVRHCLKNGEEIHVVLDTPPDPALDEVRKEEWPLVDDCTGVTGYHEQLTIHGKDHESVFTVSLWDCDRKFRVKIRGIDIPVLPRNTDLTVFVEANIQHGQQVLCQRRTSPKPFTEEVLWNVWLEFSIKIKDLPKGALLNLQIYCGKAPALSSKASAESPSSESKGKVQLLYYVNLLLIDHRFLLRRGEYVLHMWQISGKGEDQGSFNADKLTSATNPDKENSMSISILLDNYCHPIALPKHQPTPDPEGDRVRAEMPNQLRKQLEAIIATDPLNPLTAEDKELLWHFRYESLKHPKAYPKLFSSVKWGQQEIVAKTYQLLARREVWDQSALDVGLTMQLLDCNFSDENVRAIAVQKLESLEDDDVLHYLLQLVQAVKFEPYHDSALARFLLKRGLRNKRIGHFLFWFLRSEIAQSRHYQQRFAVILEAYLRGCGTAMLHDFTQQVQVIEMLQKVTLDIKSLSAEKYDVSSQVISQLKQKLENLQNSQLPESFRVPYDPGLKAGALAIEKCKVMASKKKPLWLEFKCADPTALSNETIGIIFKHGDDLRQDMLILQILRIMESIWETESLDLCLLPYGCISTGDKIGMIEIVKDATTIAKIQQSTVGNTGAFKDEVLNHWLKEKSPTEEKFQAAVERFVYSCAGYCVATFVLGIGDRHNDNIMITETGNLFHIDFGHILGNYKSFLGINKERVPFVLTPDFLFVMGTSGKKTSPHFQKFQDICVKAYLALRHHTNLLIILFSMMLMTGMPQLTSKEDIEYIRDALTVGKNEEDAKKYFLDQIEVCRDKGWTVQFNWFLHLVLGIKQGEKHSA
T2 sequence (P48736 whole entry): as above

Structure (SMILES)	pIC50 (PI3Kγ (p120γ))	pIC50 (PI3Kγ)
Cc1nn(C)cc1NC(=O)c1c(N)nn2ccc(-c3cc4c(c(NS(C)(=O)=O)c3)C(=O)N([C@@H](C)C3CC3)C4)nc12 [Example 107, 2-Amino-5-{2-[(1S)-1-cyclopropylethyl]-7-methanesulfonamido-1-oxo-2,3-dihydro-1H-isoindol-5-yl}-N-(1,3-dimethyl-1H-pyrazol-4-yl)pyrazolo[1,5-a]pyrimidine-3-carboxamide]	> 7.00	> 7.00
Cc1c(NC(=O)c2c(N)nn3ccc(-c4cc5c(c(NS(C)(=O)=O)c4)C(=O)N([C@@H](C)C4CC4)C5)nc23)cnn1C [Example 108, 2-Amino-5-{2-[(1S)-1-cyclopropylethyl]-7-methanesulfonamido-1-oxo-2,3-dihydro-1H-isoindol-5-yl}-N-(1,5-dimethyl-1H-pyrazol-4-yl)pyrazolo[1,5-a]pyrimidine-3-carboxamide]	> 7.00	> 7.00
C[C@@H](C1CC1)N1Cc2cc(-c3ccn4nc(N)c(C(=O)Nc5ncn(C)n5)c4n3)cc(NS(C)(=O)=O)c2C1=O [Example 109, 2-Amino-5-{2-[(1S)-1-cyclopropylethyl]-7-methanesulfonamido-1-oxo-2,3-dihydro-1H-isoindol-5-yl}-N-(1-methyl-1H-1,2,4-triazol-3-yl)pyrazolo[1,5-a]pyrimidine-3-carboxamide]	> 7.00	6.00 to 7.00
CCS(=O)(=O)Nc1cc(-c2ccn3nc(N)c(C(=O)NC4CC4)c3n2)cc2c1C(=O)N([C@@H](C)C1CC1)C2 [Example 110, 2-Amino-N-cyclopropyl-5-{2-[(1S)-1-cyclopropylethyl]-7-ethanesulfonamido-1-oxo-2,3-dihydro-1H-isoindol-5-yl}pyrazolo[1,5-a]pyrimidine-3-carboxamide]	> 7.00	> 7.00
CCS(=O)(=O)Nc1cc(-c2ccn3nc(N)c(C(=O)N[C@H]4C[C@](C)(O)C4)c3n2)cc2c1C(=O)N([C@@H](C)C1CC1)C2 [Example 111, 2-Amino-5-{2-[(1S)-1-cyclopropylethyl]-7-ethanesulfonamido-1-oxo-2,3-dihydro-1H-isoindol-5-yl}-N-[trans-3-hydroxy-3-methylcyclobutyl]pyrazolo[1,5-a]pyrimidine-3-carboxamide]	> 7.00	> 7.00
CCS(=O)(=O)Nc1cc(-c2ccn3nc(N)c(C(=O)Nc4cccnc4)c3n2)cc2c1C(=O)N([C@@H](C)C1CC1)C2 [Example 112, 2-Amino-5-{2-[(1S)-1-cyclopropylethyl]-7-ethanesulfonamido-1-oxo-2,3-dihydro-1H-isoindol-5-yl}-N-(pyridin-3-yl)pyrazolo[1,5-a]pyrimidine-3-carboxamide]	> 7.00	> 7.00
COCCS(=O)(=O)Nc1cc(-c2ccn3nc(N)c(C(=O)NC4CC4)c3n2)cc2c1C(=O)N([C@@H](C)C1CC1)C2 [Example 113, 2-Amino-N-cyclopropyl-5-{2-[(1S)-1-cyclopropylethyl]-7-(2-methoxyethanesulfonamido)-1-oxo-2,3-dihydro-1H-isoindol-5-yl}pyrazolo[1,5-a]pyrimidine-3-carboxamide]	> 7.00	> 7.00
C[C@@H](C1CC1)N1Cc2cc(-c3ccn4nc(N)c(C(=O)NC5CC5)c4n3)cc(N(C)S(C)(=O)=O)c2C1=O [Example 114, 2-Amino-N-cyclopropyl-5-{2-[(1S)-1-cyclopropylethyl]-7-(N-methylmethanesulfonamido)-1-oxo-2,3-dihydro-1H-isoindol-5-yl}pyrazolo[1,5-a]pyrimidine-3-carboxamide]	> 7.00	> 7.00
C[C@H](N1Cc2cc(-c3ccn4nc(N)c(C(=O)NC5CC5)c4n3)cc(NS(C)(=O)=O)c2C1=O)C(F)(F)F [Example 115, 2-Amino-N-cyclopropyl-5-{7-methanesulfonamido-1-oxo-2-[(2S)-1,1,1-trifluoropropan-2-yl]-2,3-dihydro-1H-isoindol-5-yl}pyrazolo[1,5-a]pyrimidine-3-carboxamide]	> 7.00	> 7.00

Now from value to compound:

pIC50 (PI3Kγ (p120γ))	pIC50 (PI3Kγ)	Structure (SMILES)
> 7.00	> 7.00	C[C@@H](C1CC1)N1Cc2cc(-c3ccn4nc(N)c(C(=O)NC(C)(C)CO)c4n3)cc(NS(C)(=O)=O)c2C1=O [Example 94, 2-Amino-5-{2-[(1S)-1-cyclopropylethyl]-7-methanesulfonamido-1-oxo-2,3-dihydro-1H-isoindol-5-yl}-N-(1-hydroxy-2-methylpropan-2-yl)pyrazolo[1,5-a]pyrimidine-3-carboxamide]
> 7.00	> 7.00	C[C@@H](C1CC1)N1Cc2cc(-c3ccn4nc(N)c(C(=O)NCCC(C)(C)O)c4n3)cc(NS(C)(=O)=O)c2C1=O [Example 95, 2-Amino-5-{2-[(1S)-1-cyclopropylethyl]-7-methanesulfonamido-1-oxo-2,3-dihydro-1H-isoindol-5-yl}-N-(3-hydroxy-3-methylbutyl)pyrazolo[1,5-a]pyrimidine-3-carboxamide]
> 7.00	> 7.00	CC(C)[C@H](CO)NC(=O)c1c(N)nn2ccc(-c3cc4c(c(NS(C)(=O)=O)c3)C(=O)N([C@@H](C)C3CC3)C4)nc12 [Example 96, 2-Amino-5-{2-[(1S)-1-cyclopropylethyl]-7-methanesulfonamido-1-oxo-2,3-dihydro-1H-isoindol-5-yl}-N-[(2R)-1-hydroxy-3-methylbutan-2-yl]pyrazolo[1,5-a]pyrimidine-3-carboxamide]
> 7.00	> 7.00	C[C@@H](C1CC1)N1Cc2cc(-c3ccn4nc(N)c(C(=O)N[C@@H](CO)C5CC5)c4n3)cc(NS(C)(=O)=O)c2C1=O [Example 97, 2-Amino-N-((R)-1-cyclopropyl-2-hydroxyethyl)-5-(2-((S)-1-cyclopropylethyl)-7-(methylsulfonamido)-1-oxoisoindolin-5-yl)pyrazolo[1,5-a]pyrimidine-3-carboxamide]
> 7.00	> 7.00	C[C@@H](NC(=O)c1c(N)nn2ccc(-c3cc4c(c(NS(C)(=O)=O)c3)C(=O)N([C@@H](C)C3CC3)C4)nc12)c1cnn(C)c1 [Example 98, 2-Amino-5-{2-[(1S)-1-cyclopropylethyl]-7-methanesulfonamido-1-oxo-2,3-dihydro-1H-isoindol-5-yl}-N-[(1R)-1-(1-methyl-1H-pyrazol-4-yl)ethyl]pyrazolo[1,5-a]pyrimidine-3-carboxamide]
> 7.00	> 7.00	C[C@@H](C1CC1)N1Cc2cc(-c3ccn4nc(N)c(C(=O)Nc5cccnc5)c4n3)cc(NS(C)(=O)=O)c2C1=O [Example 99, (S)-2-Amino-5-(2-(1-cyclopropylethyl)-7-(methylsulfonamido)-1-oxoisoindolin-5-yl)-N-(pyridin-3-yl)pyrazolo[1,5-a]pyrimidine-3-carboxamide]
> 7.00	> 7.00	C[C@@H](C1CC1)N1Cc2cc(-c3ccn4nc(N)c(C(=O)Nc5ccncc5)c4n3)cc(NS(C)(=O)=O)c2C1=O [Example 100, (S)-2-Amino-5-(2-(1-cyclopropylethyl)-7-(methylsulfonamido)-1-oxoisoindolin-5-yl)-N-(pyridin-4-yl)pyrazolo[1,5-a]pyrimidine-3-carboxamide]
> 7.00	> 7.00	Cc1cc(NC(=O)c2c(N)nn3ccc(-c4cc5c(c(NS(C)(=O)=O)c4)C(=O)N([C@@H](C)C4CC4)C5)nc23)ccn1 [Example 101, (S)-2-Amino-5-(2-(1-cyclopropylethyl)-7-(methylsulfonamido)-1-oxoisoindolin-5-yl)-N-(2-methylpyridin-4-yl)pyrazolo[1,5-a]pyrimidine-3-carboxamide]
> 7.00	> 7.00	Cc1cc(NC(=O)c2c(N)nn3ccc(-c4cc5c(c(NS(C)(=O)=O)c4)C(=O)N([C@@H](C)C4CC4)C5)nc23)cc(C)n1 [Example 102, (S)-2-Amino-5-(2-(1-cyclopropylethyl)-7-(methylsulfonamido)-1-oxoisoindolin-5-yl)-N-(2,6-dimethylpyridin-4-yl)pyrazolo[1,5-a]pyrimidine-3-carboxamide]
> 7.00	> 7.00	C[C@@H](C1CC1)N1Cc2cc(-c3ccn4nc(N)c(C(=O)Nc5ccc(C(C)(C)O)nc5)c4n3)cc(NS(C)(=O)=O)c2C1=O [Example 103, 2-Amino-5-{2-[(1S)-1-cyclopropylethyl]-7-methanesulfonamido-1-oxo-2,3-dihydro-1H-isoindol-5-yl}-N-[6-(2-hydroxypropan-2-yl)pyridin-3-yl]pyrazolo[1,5-a]pyrimidine-3-carboxamide]
> 7.00	> 7.00	C[C@@H](C1CC1)N1Cc2cc(-c3ccn4nc(N)c(C(=O)Nc5ccccc5)c4n3)cc(NS(C)(=O)=O)c2C1=O [Example 104, (S)-2-Amino-5-(2-(1-cyclopropylethyl)-7-(methylsulfonamido)-1-oxoisoindolin-5-yl)-N-phenylpyrazolo[1,5-a]pyrimidine-3-carboxamide]
> 7.00	> 7.00	C[C@@H](C1CC1)N1Cc2cc(-c3ccn4nc(N)c(C(=O)Nc5ccc(CO)cc5)c4n3)cc(NS(C)(=O)=O)c2C1=O [Example 105, 2-Amino-5-{2-[(1S)-1-cyclopropylethyl]-7-methanesulfonamido-1-oxo-2,3-dihydro-1H-isoindol-5-yl}-N-[4-(hydroxymethyl)phenyl]pyrazolo[1,5-a]pyrimidine-3-carboxamide]
> 7.00	> 7.00	C[C@@H](C1CC1)N1Cc2cc(-c3ccn4nc(N)c(C(=O)Nc5cnn(CC(F)(F)F)c5)c4n3)cc(NS(C)(=O)=O)c2C1=O [Example 106, 2-Amino-5-{2-[(1S)-1-cyclopropylethyl]-7-methanesulfonamido-1-oxo-2,3-dihydro-1H-isoindol-5-yl}-N-[1-(2,2,2-trifluoroethyl)-1H-pyrazol-4-yl]pyrazolo[1,5-a]pyrimidine-3-carboxamide]
